Source: US7579006B2, “Method of treating immune pathologies with low dose estrogen” (Oregon Health and Science University, priority 2000, dated 2009)
Where two headings read alike, the source gives them in different places.

Assays:
female SJL mice = experiment: EAE induced with PLP 139-151 in female SJL mice (clinical scores, spinal cord histopathology); format: in vivo; details: for Demyelinated foci/section / Inflammatory foci/section: spinal cord at peak of disease
DLN cells = experiment: PLP 139-151 induced cytokine production by DLN cells (ELISA); format: in vivo, mice; details: 48-72 hours after PLP 139-151 stimulation
Protocol: Cytokine detection by ELISA. DLN cells were cultured at 4×10^6/ml and stimulated with the appropriate antigen in 24 well culture plates. Cell culture supernatants were recovered between 48-72 hr and frozen at −70° C. until needed for the cytokine assay. Measurement of cytokines was performed by ELISA using cytokine specific capture and detection antibodies (Pharmingen). Standard curves for each assay were generated using recombinant mouse cytokines (Pharmingen), and the concentration of cytokines in the cell supernatants was determined by interpolation from the appropriate standard curve. IFN-γ, TNF-α and IL-12 were chosen as representative Th1 cytokines, while IL-4 and IL-10 were measured as representative Th2 cytokines.
To determine if low dose estrogen therapy altered cytokine secretion patterns, DLN cells were prepared from individual mice at the peak of clinical EAE and cytokine levels were measured 48-72 hours after in vitro stimulation with PLP 139-151. IFN-γ, IL-12, and TNF-α were used as representative Th1 cytokines while IL-4, and IL-10 were used as representative Th2 cytokines. […] Despite the lack of statistical significance, the trend towards higher Th1 and lower Th2 cytokines points towards a subtle shift in the Th1/Th2 balance. The shift can be seen more clearly when the cytokine response of each individual mouse is plotted as a ratio of IFN-γ to IL-10 (FIG. 5C). There was a marked decrease in the frequency of high Th1 responder mice in the E2 and E3 treated groups when compared to placebo animals that approached significance (p=0.09 for the 5.0 mg E3 treated mice). Additionally, no informative trends were detected in IL-4 secretion (FIG. 5D), and TNF-α secretion was very often below the limits of detection for the assay (<31.25 pg/ml). Modest changes in cytokine responses induced by low dose estrogen therapy were also observed in the B10.PL model and were consistent with the data described for the SJL model.

B10.PL mice = experiment: EAE induced with MBP Ac1-11 in B10.PL mice; format: in vivo
[1] = cited from earlier work
male SJL mice = experiment: EAE induced with PLP 139-151 in male SJL mice; format: in vivo
[2] = tested on: draining lymph node (DLN) cells; experiment: Flow cytometry of activation and adhesion markers on DLN cells of SJL mice with EAE; format: in vivo; details: DLN cells at peak of EAE
Protocol: Immunofluorescent staining for flow cytometry. Draining lymph node (DLN) cells were removed during the peak of clinical symptoms and analyzed for the expression of cell surface proteins by fluorescent staining ex vivo. The following fluorochrome conjugated antibodies obtained from Pharmingen Inc. (San Diego, Calif.) were used for the direct staining of DLN cells: anti-CD4, anti-CD25, anti-CD69, anti-CD95L, anti-CD44, anti-CD62L, anti-CD49d. Two-color immunofluorescent analysis was performed on a FACScan instrument (Becton Dickinson, Mountain View, Calif.) using Cellquest software. For each experiment the cells were stained with isotype control antibodies to establish background staining, and to set the quadrants prior to calculating the percent positive staining cells. […] Alterations in the expression of adhesion or activation markers on T cells are often indicative of functional changes in the cell. Monoclonal antibodies specific for a number of these markers were used to assess whether estrogen therapy altered their expression. Draining lymph node (DLN) cells were recovered from mice during the peak of clinical EAE, incubated with the indicated fluorochrome conjugated monoclonal antibodies, and surface expression measured by fluorescent activated cell analyzer.

SMILES: C[C@]12CC[C@@H]3c4ccc(O)cc4CC[C@H]3[C@@H]1C[C@@H](O)[C@@H]2O [Estriol, estriol]
- CDI (cumulative disease index) (female SJL mice; 1.5 mg/pellet (low)): 9.3 ± 2.6
- Incidence (female SJL mice; 1.5 mg/pellet (low)): 6/10
- Incidence (%) (female SJL mice; 1.5 mg/pellet (low)): (60%)
- Onset (female SJL mice; 1.5 mg/pellet (low)): 16.4 ± 0.7 days
- Peak (disease score) (female SJL mice; 1.5 mg/pellet (low)): 2.0 ± 0.0
- Relapse (female SJL mice; 1.5 mg/pellet (low)): 0/3
- Relapse (%) (female SJL mice; 1.5 mg/pellet (low)): (0%)
- Demyelinated foci/section (female SJL mice; 2.5 mg pellet): 0.8 ± 0.2 foci/section
- Inflammatory foci/section (female SJL mice; 2.5 mg pellet): 1.2 ± 0.6 foci/section
- Demyelinated foci/section (female SJL mice; 5.0 mg pellet): 0.3 ± 0.2 foci/section
- Inflammatory foci/section (female SJL mice; 5.0 mg pellet): 0.9 ± 0.5 foci/section
- CDI (cumulative disease index) (female SJL mice; 5.0 mg/pellet (pregnancy)): 6.5 ± 9
- Incidence (female SJL mice; 5.0 mg/pellet (pregnancy)): 2/5
- Incidence (%) (female SJL mice; 5.0 mg/pellet (pregnancy)): (40%)
- Onset (female SJL mice; 5.0 mg/pellet (pregnancy)): 33.5 ± 5.0 days
- Peak (disease score) (female SJL mice; 5.0 mg/pellet (pregnancy)): 1.4 ± 2.2
- Relapse (female SJL mice; 5.0 mg/pellet (pregnancy)): 0/2
- Relapse (%) (female SJL mice; 5.0 mg/pellet (pregnancy)): (0%)
- CDI (cumulative disease index) (female SJL mice; 15.0 mg/pellet (high)): 4.4 ± 3.5
- Incidence (female SJL mice; 15.0 mg/pellet (high)): 5/10
- Incidence (%) (female SJL mice; 15.0 mg/pellet (high)): (50%)
- Onset (female SJL mice; 15.0 mg/pellet (high)): 23.8 ± 9 days
- Peak (disease score) (female SJL mice; 15.0 mg/pellet (high)): 1.4 ± 1.1
- Relapse (female SJL mice; 15.0 mg/pellet (high)): 0/1
- Relapse (%) (female SJL mice; 15.0 mg/pellet (high)): (0%)
- comparison of E2 and E3 in incidence or severity of EAE (female SJL mice; Fisher exact test, same animal model): equally protective
- IL-10 secretion by DLN cells (DLN cells): modest increase
- IL-12 secretion by DLN cells (DLN cells): small decrease
- secretion of IFN-γ by DLN cells (DLN cells; p>0.10): consistently lower
- CDI (B10.PL mice; 1.5 mg/pellet (low)): 1.9 ± 1.7
- Incidence (B10.PL mice; 1.5 mg/pellet (low)): 5/8
- Incidence (%) (B10.PL mice; 1.5 mg/pellet (low)): 38%
- Onset (B10.PL mice; 1.5 mg/pellet (low)): 30.3 ± 0.9 days
- Peak (disease score) (B10.PL mice; 1.5 mg/pellet (low)): 1.38 ± 0.8
- CDI (B10.PL mice; 5 mg/pellet (pregnancy)): 1.0 ± 0.5
- Incidence (B10.PL mice; 5 mg/pellet (pregnancy)): 3/8
- Incidence (%) (B10.PL mice; 5 mg/pellet (pregnancy)): 38%
- Onset (B10.PL mice; 5 mg/pellet (pregnancy)): 31.3 ± 0.7 days
- Peak (disease score) (B10.PL mice; 5 mg/pellet (pregnancy)): 0.71 ± 0.4
- inhibitory effect on EAE compared with 17β-estradiol (B10.PL mice; B10.PL females): equivalent inhibitory effect on EAE
- serum concentration from 60-day release pellet ([1]; 0.025 mg pellet): 10 to 20 pg/mL
- serum concentration from 60-day release pellet ([1]; 0.1 mg pellet): 40 to 50 pg/mL
- serum concentration from 60-day release pellet ([1]; 0.36 mg pellet): 150 to 200 pg/mL
- serum concentration from 60-day release pellet ([1]; 1.5 mg pellet): 800-1,000 pg/ml
- serum concentration from 60-day release pellet ([1]; 2.5 mg pellet): 2,000-3,000 pg/ml
- serum concentration from 60-day release pellet ([1]; 5 mg pellet): 5,000-6,000 pg/ml
- serum concentration from 60-day release pellet ([1]; 15 mg pellet): 10,000-15,000 pg/ml
- CDI (male SJL mice; 2.5 mg/pellet): 3.2 ± 2.5
- Incidence (male SJL mice; 2.5 mg/pellet): 2/3
- Incidence (%) (male SJL mice; 2.5 mg/pellet): 67%
- Onset (male SJL mice; 2.5 mg/pellet): 16.5 ± 0.7 days
- Peak (disease score) (male SJL mice; 2.5 mg/pellet): 0.67 ± 0.6
- CDI (male SJL mice; 5.0 mg/pellet): 2.6 ± 5.3
- Incidence (male SJL mice; 5.0 mg/pellet): 1/4
- Incidence (%) (male SJL mice; 5.0 mg/pellet): 25%
- Onset (male SJL mice; 5.0 mg/pellet): 16.0 ± 0 days
- Peak (disease score) (male SJL mice; 5.0 mg/pellet): 0.50 ± 1.0
- CD4, % of Total ([2]; 2.5 mg pellet): 45%
- CD25, % of CD4+ T cells ([2]; 2.5 mg pellet): 5.5%
- CD44, % of CD4+ T cells ([2]; 2.5 mg pellet): 36%
- CD62L, % of CD4+ T cells ([2]; 2.5 mg pellet): 12%
- CD69, % of CD4+ T cells ([2]; 2.5 mg pellet): 7.5%
- CD49d, % of CD4+ T cells ([2]; 2.5 mg pellet): 36%
- FASL, % of CD4+ T cells ([2]; 2.5 mg pellet): 3.1%
- CD4, % of Total ([2]; 5.0 mg pellet): 47%
- CD25, % of CD4+ T cells ([2]; 5.0 mg pellet): 6.4%
- CD44, % of CD4+ T cells ([2]; 5.0 mg pellet): 38%
- CD62L, % of CD4+ T cells ([2]; 5.0 mg pellet): 8.8%
- CD69, % of CD4+ T cells ([2]; 5.0 mg pellet): 8.3%
- CD49d, % of CD4+ T cells ([2]; 5.0 mg pellet): 37%
- FASL, % of CD4+ T cells ([2]; 5.0 mg pellet): 2.7%
